Active and inactive are the calls of the source. No cut-off for these calls is given here.
Legend:
[1] = Fraction unbound in mouse plasma at 5 uM after 4 hrs by equilibrium dialysis method
[2] = Half life in Sprague-Dawley rat at 1 mg/kg, iv administered as single dose by LC-MS/MS analysis; assay type: ADME, organism-based; details: in vivo
[3] = test system: Mus musculus; experiment: Dose normalized unbound AUC in C57Bl/6J mouse at 50 mg/kg, po administered via gavage as single dose by LC-MS/MS analysis; assay type: ADME, organism-based; details: in vivo
[4] = test system: Mus musculus; experiment: Antidiabetic activity in C57Bl/6J mouse assessed as inhibition of blood glucose AUC (0 to 120 mins) at 50 mg/kg, po treated prior to glucose challenge by OGTT relative to control; assay type: functional
[5] = test system: Mus musculus; experiment: Antidiabetic activity in FFA2R knock-out C57Bl/6J mouse assessed as inhibition of blood glucose AUC (0 to 120 mins) at […], po treated prior to glucose challenge by OGTT; assay type: functional, organism-based
[6] = target: Free fatty acid receptor 1 (Homo sapiens) (UniProt O14842); experiment: Antagonist activity at FFA1R (unknown origin) at 10 uM by aequorin based assay relative to control; assay type: functional
[7] = target: T1, Free fatty acid receptor 4 (Homo sapiens) (UniProt Q5NUL3); experiment: Antagonist activity at FFA4R (unknown origin) at 10 uM by aequorin based assay relative to control; assay type: functional
T1 sequence (whole entry): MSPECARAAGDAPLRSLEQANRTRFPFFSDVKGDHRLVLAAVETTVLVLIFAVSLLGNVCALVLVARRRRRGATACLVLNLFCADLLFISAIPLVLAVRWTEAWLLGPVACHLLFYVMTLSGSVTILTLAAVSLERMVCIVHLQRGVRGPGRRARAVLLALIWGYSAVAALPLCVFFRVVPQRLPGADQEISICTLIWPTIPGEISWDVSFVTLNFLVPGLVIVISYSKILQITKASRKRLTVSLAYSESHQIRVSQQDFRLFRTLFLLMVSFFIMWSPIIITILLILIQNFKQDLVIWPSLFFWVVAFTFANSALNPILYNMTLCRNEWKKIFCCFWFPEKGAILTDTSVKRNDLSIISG

[8] = target: T2, Glucose-dependent insulinotropic receptor (Homo sapiens) (UniProt Q8TDV5); experiment: Agonist activity at GPR119 (unknown origin) at 10 uM by cAMP accumulation based assay relative to control; assay type: functional
T2 sequence (whole entry): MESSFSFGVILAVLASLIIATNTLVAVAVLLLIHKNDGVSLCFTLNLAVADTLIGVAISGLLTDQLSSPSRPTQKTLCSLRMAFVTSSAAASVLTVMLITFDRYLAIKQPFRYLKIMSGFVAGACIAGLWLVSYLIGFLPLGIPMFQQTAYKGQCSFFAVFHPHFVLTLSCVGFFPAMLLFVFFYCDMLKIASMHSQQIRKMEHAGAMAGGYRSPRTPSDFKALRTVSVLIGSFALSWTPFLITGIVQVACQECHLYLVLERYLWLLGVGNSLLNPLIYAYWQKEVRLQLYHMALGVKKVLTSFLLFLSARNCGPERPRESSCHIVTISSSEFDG

[9] = target: T2, Glucose-dependent insulinotropic receptor (Homo sapiens); experiment: Antagonist activity at GPR119 (unknown origin) at 10 uM by cAMP accumulation based assay relative to control; assay type: functional
[10] = target: Hydroxycarboxylic acid receptor 3 (Homo sapiens) (UniProt P49019); experiment: Antagonist activity at GPR109b (unknown origin) at 10 uM by aequorin based assay relative to control; assay type: functional
[11] = target: T3, Free fatty acid receptor 3 (Homo sapiens) (UniProt O14843); details: 10 uM
T3 sequence (whole entry): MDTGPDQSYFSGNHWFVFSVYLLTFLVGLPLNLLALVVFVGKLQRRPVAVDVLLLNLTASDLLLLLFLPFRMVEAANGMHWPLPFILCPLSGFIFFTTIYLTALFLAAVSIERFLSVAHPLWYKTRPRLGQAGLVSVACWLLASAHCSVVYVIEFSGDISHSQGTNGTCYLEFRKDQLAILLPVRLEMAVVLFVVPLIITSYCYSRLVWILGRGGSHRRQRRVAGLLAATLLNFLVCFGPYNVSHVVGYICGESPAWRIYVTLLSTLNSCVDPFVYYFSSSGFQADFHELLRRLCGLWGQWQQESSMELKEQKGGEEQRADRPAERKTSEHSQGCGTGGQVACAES

[12] = target: Glucagon-like peptide 1 receptor (Homo sapiens) (UniProt P43220); details: 10 uM
Description: Antagonist activity at GLP1R (unknown origin) at 10 uM by cAMP accumulation based assay relative to control

[13] = target: T4, Glucagon-like peptide 2 receptor (Homo sapiens) (UniProt O95838); details: 10 uM
T4 sequence (whole entry): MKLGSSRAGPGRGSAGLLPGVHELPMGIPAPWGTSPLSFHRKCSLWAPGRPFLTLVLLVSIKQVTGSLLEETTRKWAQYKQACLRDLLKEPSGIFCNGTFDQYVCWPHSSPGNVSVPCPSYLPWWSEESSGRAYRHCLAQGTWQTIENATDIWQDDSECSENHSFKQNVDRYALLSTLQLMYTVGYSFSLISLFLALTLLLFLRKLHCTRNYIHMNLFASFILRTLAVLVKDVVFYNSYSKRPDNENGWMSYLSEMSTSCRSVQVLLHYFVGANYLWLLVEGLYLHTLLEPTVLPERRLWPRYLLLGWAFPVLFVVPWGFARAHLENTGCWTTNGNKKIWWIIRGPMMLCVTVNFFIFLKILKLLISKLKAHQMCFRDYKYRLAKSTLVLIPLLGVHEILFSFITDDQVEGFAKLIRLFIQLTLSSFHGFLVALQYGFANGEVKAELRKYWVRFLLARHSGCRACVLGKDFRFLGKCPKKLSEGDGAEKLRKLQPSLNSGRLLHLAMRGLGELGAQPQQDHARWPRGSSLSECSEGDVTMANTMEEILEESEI
Description: Antagonist activity at GLP2R (unknown origin) at 10 uM by cAMP accumulation based assay relative to control

Chain of Glucagon-like peptide 1 receptor (Homo sapiens) (P43220 whole entry): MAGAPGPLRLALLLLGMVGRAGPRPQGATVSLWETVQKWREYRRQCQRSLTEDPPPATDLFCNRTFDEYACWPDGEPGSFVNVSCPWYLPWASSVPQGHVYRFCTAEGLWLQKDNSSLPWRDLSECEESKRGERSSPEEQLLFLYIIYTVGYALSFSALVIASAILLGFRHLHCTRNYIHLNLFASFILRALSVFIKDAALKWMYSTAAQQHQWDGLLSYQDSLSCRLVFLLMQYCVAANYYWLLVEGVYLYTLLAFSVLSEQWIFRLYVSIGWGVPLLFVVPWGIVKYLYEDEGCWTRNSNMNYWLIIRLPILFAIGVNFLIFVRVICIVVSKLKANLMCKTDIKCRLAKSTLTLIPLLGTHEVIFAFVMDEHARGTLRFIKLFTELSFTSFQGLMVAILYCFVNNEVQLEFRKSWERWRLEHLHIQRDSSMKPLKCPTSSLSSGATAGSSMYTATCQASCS
Chain of Hydroxycarboxylic acid receptor 3 (Homo sapiens) (P49019 whole entry): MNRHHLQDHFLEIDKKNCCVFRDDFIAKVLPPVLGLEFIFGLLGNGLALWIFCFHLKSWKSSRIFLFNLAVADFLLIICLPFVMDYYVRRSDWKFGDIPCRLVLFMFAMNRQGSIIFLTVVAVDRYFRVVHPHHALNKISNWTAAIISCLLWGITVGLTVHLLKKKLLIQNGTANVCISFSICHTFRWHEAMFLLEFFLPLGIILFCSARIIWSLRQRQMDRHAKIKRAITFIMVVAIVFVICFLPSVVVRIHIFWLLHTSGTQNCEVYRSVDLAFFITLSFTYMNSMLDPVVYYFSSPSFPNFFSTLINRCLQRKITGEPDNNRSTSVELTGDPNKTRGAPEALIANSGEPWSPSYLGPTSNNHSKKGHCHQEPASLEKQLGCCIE
Chain of Free fatty acid receptor 1 (Homo sapiens) (O14842 whole entry): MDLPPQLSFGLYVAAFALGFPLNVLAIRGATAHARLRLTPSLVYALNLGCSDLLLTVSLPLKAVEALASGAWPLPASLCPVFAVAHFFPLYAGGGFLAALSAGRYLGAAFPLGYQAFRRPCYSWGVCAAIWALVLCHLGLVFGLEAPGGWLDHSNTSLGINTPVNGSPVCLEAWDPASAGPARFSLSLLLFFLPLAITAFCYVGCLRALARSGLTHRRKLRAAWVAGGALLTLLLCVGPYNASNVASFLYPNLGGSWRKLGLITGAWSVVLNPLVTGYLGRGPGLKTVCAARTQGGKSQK

## COc1ccc(-c2ccccc2-c2csc(N(C(=O)[C@@H](CC(=O)O)CC3CCCC3)C3CC3)n2)cn1
[1]
  fraction unbound at 4 h, 5 µM: 0.0023
[2]
  half-life: 4 h
[3]
  fAUC/dose: 2.1 µM·min
[4]
  inhibition in vivo at 50 mg/kg: 33%
[5]
  inhibition: Active
[6]
  inhibition: 13%
[7]
  inhibition: 16%
[8]
  Activity: < 10%
[9]
  inhibition: < 10%
[10]
  inhibition: 22%
[11]
  inhibition: < 10%
[12]
  inhibition: < 10%
[13]
  inhibition: < 10%
